Test results taken from patent publication US20250205258A1 (priority 2022, published 2025).
Blank lines part the entries; values can stand above or below the compound they belong to.

Legend:
[1] = test system: HCT116 colorectal cancer cells xenografts; assay: In vivo antitumor activity, HCT116 xenografts (Efficacy Example 2); design: species or system BALB/C nude mice; settings: 1a 10 mg/kg ip × 7, qod, 5-Fluorouracil 15 mg/kg ip × 7
From the text: (§1) Experimental Method: The test animals were male SPF-grade BALB/C nude mice weighing 18 to 20 grams.
(§2) Experimental Procedure: Well-grown HCT116 colorectal cancer tumor masses were cut into uniform small pieces of approximately 3 mm in size under aseptic conditions. A cannula needle was used to inoculate one piece subcutaneously into the right axilla of each test mouse. Nine days after inoculation, the average tumor volume was approximately 113 to 119 mm^3. The animals were then regrouped based on tumor size, eliminating those with excessively large or small tumors, to ensure that the average tumor volume was consistent among the experimental groups. Administration by intraperitoneal injection was then initiated according to the following protocol, with a dosing volume of 0.2 mL per 20 grams of body weight:
(§3) From the 9th day of inoculation, the maximum tumor length (a, in mm) and the perpendicular maximum tumor width (b, in mm) were measured twice a week using a digital electronic caliper.
(§4) The tumor volume (TV) was calculated using the formula: TV=ab^2/2.
(§5) The relative tumor volume (RTV) was calculated using the formula: RTV=Vt/Vo, where Vo is the tumor volume measured at the time of cage distribution (i.e., day 1) and Vt is the tumor volume at each subsequent measurement.
(§6) On the 27th day after inoculation (day 19), the animals were euthanized, weighed, dissected to remove the tumor masses, and the tumor weights were measured.

[2] = test system: HCT116 colorectal cancer cells xenografts; assay: In vivo antitumor activity, HCT116 xenografts (Efficacy Example 3); design: species or system BALB/C nude mice; settings: 1c 1 mg/kg iv × 7, qod, 5-Fluorouracil 15 mg/kg ip × 7; for Animal weight (After tumor removal): nude mice, HCT116 xenograft; for RTV (d18): relative tumor volume; for TGI (%): tumor volume inhibition
From the text: as §1, §2, §3, §4, §5, §6
This efficacy example employs the same test animals and experimental methods as Efficacy Example 2, with the only difference being that the average tumor volume was approximately 130 to 140 mm^3 on the 13th day after inoculation of HCT116 colorectal cancer tumor masses into the test mice. Subsequently, the animals were regrouped based on tumor size and administered the drug according to the same protocol as in Efficacy Example 2. The animals were euthanized on the 30th day after inoculation (i.e., day 18), and their body weights and tumor weights were measured after dissection.

[3] = test system: human colorectal cancer cell line HCT116; assay: CCK-8 in vitro antitumor activity (Effect Example 1); format: cell-based; settings: HCT-116, HCT116, CCK-8, 72 hours
Method: (§7) The CCK-8 method described in “Methods for New Drug Pharmacological Research” (edited by Lv Qiujun, 2007: 242-243) was adopted.
(§8) The cell lines used were human lung adenocarcinoma cell line A549 and human colorectal cancer cell line HCT116, which were cryopreserved and passaged in the pharmacological laboratory of the Shanghai Institute of Pharmaceutical Industry. The culture medium was DMEM supplemented with 10% FBS and antibiotics.
(§9) Cells in logarithmic growth phase were seeded into 96-well plates at a density of 7×10^3 cells per well and incubated at 37° C. in a 5% CO2 environment for 24 hours to maintain a normal physiological pH.
(§10) After cell attachment, different concentrations of the test compounds, namely the bufalin derivatives 1a to 1l prepared in Example 1, as well as the compound doxorubicin, were added to triplicate wells, with 0.1% DMSO added as a control.
(§11) After 72 hours, 10 μL of CCK-8 cell counting kit was added to each well, and the plates were incubated again at 37° C. for 0.5 to 1 hour. The absorbance (OD) was read at 450 nm on a full-featured microplate reader (Biotek Synergy H2), and the concentration causing 50% cell growth inhibition (IC50) was calculated by simulation using GraphPad Prism software.

[4] = test system: human lung adenocarcinoma cell line A549; assay: as above; format: cell-based; settings: A549, CCK-8, 72 hours
Method: as §7, §8, §9, §10, §11

95D cells = assay: Cell scratch test, migration of 95D cells; format: cell-based, human; settings: different concentrations, FIG. 1 and FIG. 2
Method: Test Method: Draw three parallel lines with a spacing of approximately 0.5 cm on the outer bottom surface of a 6-well plate. After evenly seeding the tumor cells 95D onto the plate (5×10^5 cells/well), create a cell scratch using a pipette. Wash the cells three times with phosphate-buffered saline (PBS) to remove the scratched-off cells. Then, add medium that has been pre-mixed with different concentrations of compound 1a or 1b.
Place the plate in a 37° C., 5% CO2 incubator for culturing. Sample the cells at 0, 12, 24, 36, and 48 hours, and take photographs under a microscope.
Using ImageJ software, measure the area and height of the scratch site. The average scratch width can be obtained by dividing the area by the height. Subtract the scratch width at the end of the experiment from the scratch width at the 0-hour point to obtain the distance of cell migration. Then, use this distance value to calculate the cell migration index (MI) according to the following formula:
Cell Migration Index(MI)=(Initial Blank Width−Blank Width at a Specific Time Point)/Initial Blank Width.

hERG potassium channel = hERG potassium channel (Homo sapiens, UniProt Q12809); settings: test concentration 30 μM
Method: Experimental Method: CHO-hERG cells were cultured in a 175 cm^2 flask until the cell density reached 60 to 80%. The culture medium was then removed, and the cells were washed once with 7 mL of Phosphate Buffered Saline (PBS). Subsequently, 3 mL of gentle cell detachment solution (Detachin) was added for digestion. Once the digestion was complete, 7 mL of culture medium was added to neutralize the solution. The cells were then centrifuged, and the supernatant was aspirated. To ensure a cell density of 2 to 5×10^6/mL, 5 mL of culture medium was added to resuspend the cells.
The entire process of forming single-cell high-impedance seals and whole-cell recording mode was automatically completed by the high-throughput, fully automated patch clamp system, namely the Qpatch instrument. After obtaining the whole-cell recording mode, the cells were clamped at −80 mV. Prior to applying a 5-second+40 mV depolarization stimulus, a 50-millisecond −50 mV prepulse was given, followed by a repolarization to −50 mV for 5 seconds, and then returning to −80 mV This voltage stimulus was applied every 15 seconds. After recording for 2 minutes, the extracellular solution was recorded for 5 minutes, and then the drug administration process began.
These stock solutions were then diluted 500-fold with extracellular solution to obtain the final concentrations required for testing.

[5] = test system: Human lung adenocarcinoma cells A549; assay: CCK-8 in vitro antitumor activity (Table 5); format: cell-based; settings: A549, CCK-8, 72 hours
From the text: (§12) Test Method: The CCK-8 method from “Methods for New Drug Pharmacological Research” edited by Lv Qiujun (2007: 242-243) was adopted.
(§13) Cell lines used: Human lung adenocarcinoma cells A549, human high-metastasis lung cancer cells 95D, and human colon cancer cells HCT116, which were cryopreserved and passaged by the Pharmacological Laboratory of the Shanghai Institute of Pharmaceutical Industry, were selected. The culture medium used was DMEM+10% FBS+antibiotics.
(§14) Cells in the logarithmic growth phase were taken and seeded into 96-well plates at a density of 7×10^3 cells per well. They were then incubated at 37° C. in a 5% CO2 environment for 24 hours to maintain a normal physiological pH.
(§15) After cell adhesion, different concentrations of the test compounds, namely the bufalin derivatives IVa to IVc prepared in Example 5, as well as the comparative compound doxorubicin, were added to three replicate wells, with 0.1% DMSO added to separate wells as a control.
(§16) After 72 hours, 10 μL of the CCK-8 cell counting kit was added to each well, and the plates were incubated again at 37° C. for 0.5 to 1 hour. The absorbance (OD) was read at 450 nm on a full-function microplate reader, Biotek Synergy H2, and the concentration causing 50% inhibition of cell growth (IC50) was calculated through simulation using GraphPad Prism software.

[6] = test system: human colon cancer cells HCT116; assay: CCK-8 in vitro antitumor activity (Table 5); format: cell-based; settings: for IC50: Homo sapiens, HCT-116, HCT116, CCK-8, 72 hours; for activity against HCT116 compared with doxorubicin: HCT116, versus doxorubicin
From the text: as §12, §13, §14, §15, §16

[7] = test system: human high-metastasis lung cancer cells 95D; assay: CCK-8 in vitro antitumor activity (Table 5); format: cell-based; settings: for IC50: Homo sapiens, CCK-8, 72 hours
From the text: as §12, §13, §14, §15, §16

hERG potassium channel, sequence (Q12809 whole entry): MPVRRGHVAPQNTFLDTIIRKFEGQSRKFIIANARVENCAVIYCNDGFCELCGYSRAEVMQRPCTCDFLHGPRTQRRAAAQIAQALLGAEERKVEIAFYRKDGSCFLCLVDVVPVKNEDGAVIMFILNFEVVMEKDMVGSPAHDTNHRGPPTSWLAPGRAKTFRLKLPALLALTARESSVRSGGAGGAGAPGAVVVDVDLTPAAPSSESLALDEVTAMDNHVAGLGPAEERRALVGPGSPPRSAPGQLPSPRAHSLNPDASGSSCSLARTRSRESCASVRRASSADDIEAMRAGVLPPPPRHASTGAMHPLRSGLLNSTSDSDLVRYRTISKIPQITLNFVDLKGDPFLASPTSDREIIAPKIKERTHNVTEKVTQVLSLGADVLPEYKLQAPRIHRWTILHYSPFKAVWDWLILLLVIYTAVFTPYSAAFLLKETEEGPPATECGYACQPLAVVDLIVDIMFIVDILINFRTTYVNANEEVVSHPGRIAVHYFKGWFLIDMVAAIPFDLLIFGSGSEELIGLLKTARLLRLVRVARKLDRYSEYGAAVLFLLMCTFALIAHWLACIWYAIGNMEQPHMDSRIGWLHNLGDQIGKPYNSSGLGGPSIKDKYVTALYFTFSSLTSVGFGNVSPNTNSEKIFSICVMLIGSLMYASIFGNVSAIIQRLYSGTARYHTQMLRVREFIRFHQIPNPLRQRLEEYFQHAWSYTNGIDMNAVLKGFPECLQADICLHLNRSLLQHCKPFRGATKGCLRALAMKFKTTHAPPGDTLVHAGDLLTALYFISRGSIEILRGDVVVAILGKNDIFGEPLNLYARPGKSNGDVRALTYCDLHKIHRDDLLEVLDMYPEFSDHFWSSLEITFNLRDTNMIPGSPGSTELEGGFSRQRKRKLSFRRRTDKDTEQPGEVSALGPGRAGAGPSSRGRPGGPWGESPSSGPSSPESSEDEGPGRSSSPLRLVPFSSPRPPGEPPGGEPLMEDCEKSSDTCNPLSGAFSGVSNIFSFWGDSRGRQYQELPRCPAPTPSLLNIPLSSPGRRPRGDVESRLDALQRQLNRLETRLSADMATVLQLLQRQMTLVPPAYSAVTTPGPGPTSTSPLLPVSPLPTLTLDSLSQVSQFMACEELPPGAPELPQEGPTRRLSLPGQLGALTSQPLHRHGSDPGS

- Animal weight (After tumor removal) ([1]; nude mice, HCT116 xenograft): 19.20 ± 1.84 g
- Animal weight (After tumor removal) [2]: 21.84 ± 1.52 g
Structure (SMILES): O=c1[nH]cc(F)c(=O)[nH]1 [5-Fluorouracil, reference compound]
- RTV (d18) ([1]; relative tumor volume, d18): 5.52 ± 0.81
- TGI (%) ([1]; tumor volume inhibition): 56.16%
- RTV (d18) [2]: 7.35 ± 1.55
- TGI (%) [2]: 59.37%

Structure (SMILES): CCOP(=O)(CCN1CCC(NC(=O)O[C@H]2CC[C@@]3(C)[C@H](CC[C@@H]4[C@@H]3CC[C@]3(C)[C@@H](c5ccc(=O)oc5)CC[C@]43O)C2)CC1)OCC [Compound 1b]
- IC50 [3]: < 0.004 µM
- IC50 [4]: < 0.004 µM
- inhibitory effect on the migration of 95D cells (95D cells): excellent anti-tumor migration effects

Structure (SMILES): CCOP(=O)(CCCN1CCC(NC(=O)O[C@H]2CC[C@@]3(C)[C@H](CC[C@@H]4[C@@H]3CC[C@]3(C)[C@@H](c5ccc(=O)oc5)CC[C@]43O)C2)CC1)OCC [Compound 1c]
- IC50 [3]: < 0.004 µM
- IC50 [4]: < 0.004 µM
- Animal weight (After tumor removal) [2]: 21.02 ± 3.08 g
- RTV (d18) [2]: 6.56 ± 1.79
- TGI (%) [2]: 63.69%
- Inhibition rate (hERG potassium channel) (hERG potassium channel): 53.8±4.13%

Structure (SMILES): CCOP(=O)(CN1CCC(NC(=O)O[C@H]2CC[C@@]3(C)[C@H](CC[C@@H]4[C@@H]3CC[C@]3(C)[C@@H](c5ccc(=O)oc5)CC[C@]43O)C2)CC1)OCC [Compound 1d]
- IC50 [3]: 0.024 µM
- IC50 [4]: 0.037 µM

Structure (SMILES): CCCOP(=O)(CN1CCC(NC(=O)O[C@H]2CC[C@@]3(C)[C@H](CC[C@@H]4[C@@H]3CC[C@]3(C)[C@@H](c5ccc(=O)oc5)CC[C@]43O)C2)CC1)OCCC [Compound 1e]
- IC50 [3]: 0.022 µM
- IC50 [4]: 0.058 µM

Structure (SMILES): C[C@]12CC[C@H](OC(=O)NC3CCN(CP(=O)(OC4CCC4)OC4CCC4)CC3)C[C@H]1CC[C@@H]1[C@@H]2CC[C@]2(C)[C@@H](c3ccc(=O)oc3)CC[C@]12O [Compound 1f]
- IC50 [3]: 0.067 µM
- IC50 [4]: 0.026 µM

Structure (SMILES): C[C@]12CC[C@H](OC(=O)NC3CCN(CP(=O)(OC4CCCC4)OC4CCCC4)CC3)C[C@H]1CC[C@@H]1[C@@H]2CC[C@]2(C)[C@@H](c3ccc(=O)oc3)CC[C@]12O [Compound 1g]
- IC50 [3]: 0.289 µM
- IC50 [4]: 0.422 µM

Structure (SMILES): C[C@]12CC[C@H](OC(=O)NC3CCN(CP(=O)(OC4CCCCC4)OC4CCCCC4)CC3)C[C@H]1CC[C@@H]1[C@@H]2CC[C@]2(C)[C@@H](c3ccc(=O)oc3)CC[C@]12O [Compound 1h]
- IC50 [3]: 0.336 µM
- IC50 [4]: 0.023 µM

Structure (SMILES): CC(C)OP(=O)(CN1CC[C@@H](NC(=O)O[C@H]2CC[C@@]3(C)[C@H](CC[C@@H]4[C@@H]3CC[C@]3(C)[C@@H](c5ccc(=O)oc5)CC[C@]43O)C2)[C@H](O)C1)OC(C)C [Compound 1i]
- IC50 [3]: 0.008 µM
- IC50 [4]: 0.015 µM

Structure (SMILES): CC(C)OP(=O)(CNC1CCN(C(=O)O[C@H]2CC[C@@]3(C)[C@H](CC[C@@H]4[C@@H]3CC[C@]3(C)[C@@H](c5ccc(=O)oc5)CC[C@]43O)C2)CC1)OC(C)C [Compound 1j]
- IC50 [3]: 0.02 µM
- IC50 [4]: 0.216 µM

Structure (SMILES): CO[C@H]1CN(C(=O)O[C@H]2CC[C@@]3(C)[C@H](CC[C@@H]4[C@@H]3CC[C@]3(C)[C@@H](c5ccc(=O)oc5)CC[C@]43O)C2)CC[C@H]1NCP(=O)(OC(C)C)OC(C)C [Compound 1k]
- IC50 [3]: 0.143 µM
- IC50 [4]: 0.239 µM

Structure (SMILES): CC(C)OP(=O)(CNC1CCN(C(=O)O[C@H]2CC[C@@]3(C)[C@H](CC[C@@H]4[C@@H]3CC[C@]3(C)[C@@H](c5ccc(=O)oc5)CC[C@]43O)C2)CC1F)OC(C)C (some centres unmarked) [Compound 1l]
- IC50 [3]: 0.12 µM
- IC50 [4]: 0.283 µM

Structure (SMILES): COc1cccc2c1C(=O)c1c(O)c3c(c(O)c1C2=O)C[C@@](O)(C(=O)CO)C[C@@H]3O[C@H]1C[C@H](N)[C@H](O)[C@H](C)O1 [Doxorubicin, reference compound]
- IC50 [3]: 0.054 µM
- IC50 [4]: 0.92 µM
- IC50 [5]: 0.008 µM
- IC50 [6]: 0.019 µM
- IC50 [7]: 0.115 µM

Structure (SMILES): CC(C)OP(=O)(CN1CCN(C(=O)O[C@H]2CC[C@@]3(C)C(CCC4C3CC[C@]3(C)[C@@H](c5ccc(=O)oc5)CC[C@]43O)C2)CC1)OC(C)C (some centres unmarked) [IVa]
- IC50 [5]: 0.019 µM
- IC50 [6]: 0.117 µM
- IC50 [7]: 0.574 µM

Structure (SMILES): CCOP(=O)(CN1CCN(C(=O)O[C@H]2CC[C@@]3(C)C(CCC4C3CC[C@]3(C)[C@@H](c5ccc(=O)oc5)CC[C@]43O)C2)CC1)OCC (some centres unmarked) [IVb]
- IC50 [5]: 0.018 µM
- activity against HCT116 compared with doxorubicin [6]: comparable activity against HCT116 to doxorubicin
- IC50 [6]: 0.04 µM
- IC50 [7]: 0.262 µM

Structure (SMILES): CCOP(=O)(CCCN1CCN(C(=O)O[C@H]2CC[C@@]3(C)C(CCC4C3CC[C@]3(C)[C@@H](c5ccc(=O)oc5)CC[C@]43O)C2)CC1)OCC (some centres unmarked) [IVc]
- IC50 [5]: 0.011 µM
- activity against HCT116 compared with doxorubicin [6]: comparable activity against HCT116 to doxorubicin
- IC50 [6]: 0.027 µM
- IC50 [7]: 0.072 µM
- activity against 95D compared with doxorubicin ([7]; versus doxorubicin): superior activity against 95D compared to doxorubicin
